# Key:
# [1] = system: alpha1A, alpha1B and alpha1C adrenergic receptor subtypes; experiment: [3H]-prazosin binding, alpha1 subtypes together (Table 3 overall); conditions: reference compounds versus compounds of the invention/prazosin
# [2] = target: T1, 5-HT2 receptors (isolated rabbit aorta) (Oryctolagus cuniculus, UniProt G1SYA7); experiment: Antagonism of serotonin-induced contraction of isolated rabbit aorta; conditions: isolated rabbit aorta, 37° C., compound 10 min before agonist; limits (p < 0.05)
# T1 construct: Four rings formed from rabbit aorta were joined together to form a chain; from tissue; host or cells: isolated rabbit aorta rings
# Description: The antagonist activity of some of the compounds of the invention on the contractile activity of seratonin on isolated rabbit aorta, effected principally by way of the 5-HT2 receptors, is reported here by way of example. The method of Feniuk et al [Br. J. Pharmacol. (1985), 86, 697-704] was used, with slight modifications. Four rings formed from rabbit aorta were joined together to form a chain; the preparation was placed in an isolated organ bath in the presence of Krebs at 37° C. and attached to an isometric transducer, a tension of 2 g being applied and oxygenation was carried out continuously with O2 --CO2 (95-5 v/v). A seratonin concentration(0.3 μM) was used that was capable of causing sub-maximal contraction of the preparation. […] The results obtained in this way are given in Table 4 below which, for several of the compounds of the invention gives IC50 values calculated by the regression method on a set of at least 2 experiments at 5 different concentrations for each of the compounds examined, these being compared with values obtained for several reference compounds.
# [3] = target: T2, alpha1A adrenergic receptor (rat GSM) (Rattus norvegicus, UniProt P43140); experiment: [3H]-prazosin binding in rat submaxillary glands (GSM); conditions: alpha1A subtype, pH 7.4, 45 min, 25° C., read-out: Inhibition of the binding of [3H]-prazosin IC50
# T2 sequence (P43140 1-466): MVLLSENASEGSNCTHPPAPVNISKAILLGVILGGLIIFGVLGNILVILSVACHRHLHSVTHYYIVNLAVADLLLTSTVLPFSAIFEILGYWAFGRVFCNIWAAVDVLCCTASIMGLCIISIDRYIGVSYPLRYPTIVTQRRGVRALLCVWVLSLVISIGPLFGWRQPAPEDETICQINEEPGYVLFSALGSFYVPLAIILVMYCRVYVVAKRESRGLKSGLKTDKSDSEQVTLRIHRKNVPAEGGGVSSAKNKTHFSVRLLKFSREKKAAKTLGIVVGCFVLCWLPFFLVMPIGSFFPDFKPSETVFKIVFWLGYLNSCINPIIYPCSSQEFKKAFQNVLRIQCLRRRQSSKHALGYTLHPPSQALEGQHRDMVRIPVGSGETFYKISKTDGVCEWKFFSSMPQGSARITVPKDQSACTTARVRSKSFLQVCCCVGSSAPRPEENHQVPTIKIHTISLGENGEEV
# [4] = target: alpha1A + alpha1C adrenergic receptor (human prostate); experiment: [3H]-prazosin binding in human prostate; conditions: alpha1A + alpha1C subtype, pH 7.5, 30 min, 25° C., read-out: Inhibition of the binding of [3H]-prazosin IC50
# [5] = target: T3, alpha1B adrenergic receptor (rat liver) (Rattus norvegicus, UniProt P15823); experiment: [3H]-prazosin binding in rat liver
# T3 sequence (P15823 1-515): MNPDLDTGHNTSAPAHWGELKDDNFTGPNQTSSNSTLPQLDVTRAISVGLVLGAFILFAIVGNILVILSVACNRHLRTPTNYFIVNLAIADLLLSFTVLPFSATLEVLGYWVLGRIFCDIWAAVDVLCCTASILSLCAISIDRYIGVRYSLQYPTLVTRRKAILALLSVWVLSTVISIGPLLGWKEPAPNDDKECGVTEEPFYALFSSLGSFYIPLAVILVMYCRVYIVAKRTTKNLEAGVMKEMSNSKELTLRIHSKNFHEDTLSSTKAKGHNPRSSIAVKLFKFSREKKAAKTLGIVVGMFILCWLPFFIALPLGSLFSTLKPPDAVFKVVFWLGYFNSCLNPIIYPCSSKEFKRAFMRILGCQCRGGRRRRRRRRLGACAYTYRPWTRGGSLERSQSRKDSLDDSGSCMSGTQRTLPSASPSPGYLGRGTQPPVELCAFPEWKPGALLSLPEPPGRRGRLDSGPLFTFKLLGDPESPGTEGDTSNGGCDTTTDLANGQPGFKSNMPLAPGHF
# T1 sequence (G1SYA7 1-469): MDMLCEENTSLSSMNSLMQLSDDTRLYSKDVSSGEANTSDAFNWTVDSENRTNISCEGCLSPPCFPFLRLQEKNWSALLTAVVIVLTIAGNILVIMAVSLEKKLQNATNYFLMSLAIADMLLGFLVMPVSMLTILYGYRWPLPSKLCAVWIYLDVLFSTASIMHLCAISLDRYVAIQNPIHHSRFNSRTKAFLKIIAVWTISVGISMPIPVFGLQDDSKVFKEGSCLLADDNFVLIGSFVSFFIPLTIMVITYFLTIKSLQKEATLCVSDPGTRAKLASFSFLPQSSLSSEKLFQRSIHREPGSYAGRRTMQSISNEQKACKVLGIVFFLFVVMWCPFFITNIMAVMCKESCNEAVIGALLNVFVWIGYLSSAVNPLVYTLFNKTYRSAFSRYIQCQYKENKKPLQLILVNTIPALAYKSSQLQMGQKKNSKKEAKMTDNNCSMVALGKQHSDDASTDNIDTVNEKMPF
smiles,measurement,setting,value
"O=C(c1ccc(F)cc1)C1CCN(CCn2c(=O)[nH]c3ccccc3c2=O)CC1 [Ketanserine, reference compound]",times less powerful (on average),[1],10 to 30 times
same,IC50,[2],228 nM
same,IC50,[3],48.2 nM
same,IC50,[4],270 nM
same,IC50,[5],29.9 nM

# From patent publication US5985885A, “Quinazoline-4-amino-2-(piperidine-1-yl-4-substituted) derivatives having antihypertensive activity, a method for their preparation and their pharmaceutical use” (priority 1996, dated 1999)
